Measurements reported in ChEMBL document CHEMBL1128004, “Ketones related to the benzoate 5-HT4 receptor antagonist RS-23597 are high affinity partial agonists” (Bioorg Med Chem Lett, 1994).

Columns and labels:
[1] = molecular target: 5-hydroxytryptamine receptor 4 (Homo sapiens) (UniProt Q13639); assay: Intrinsic activity relative to the 5-HT was determined; type: functional; details: Rattus norvegicus
[2] = molecular target: 5-hydroxytryptamine receptor 4 (Homo sapiens) (UniProt Q13639); assay: Compound was tested for antagonist activity against 5-HT4 receptor in rat esophageal muscularis mucosae; type: functional, tissue-based; details: Muscularis mucosa, target entry is the homologue from another species
[3] = molecular target: 5-hydroxytryptamine receptor 4 (Homo sapiens) (UniProt Q13639); assay: Compound was tested for 5-HT4 receptor in rat esophageal muscularis mucosae; Antagonist; type: functional; details: filed as antagonist, target entry is the homologue from another species

5-hydroxytryptamine receptor 4 (Homo sapiens), sequence (Q13639 whole entry): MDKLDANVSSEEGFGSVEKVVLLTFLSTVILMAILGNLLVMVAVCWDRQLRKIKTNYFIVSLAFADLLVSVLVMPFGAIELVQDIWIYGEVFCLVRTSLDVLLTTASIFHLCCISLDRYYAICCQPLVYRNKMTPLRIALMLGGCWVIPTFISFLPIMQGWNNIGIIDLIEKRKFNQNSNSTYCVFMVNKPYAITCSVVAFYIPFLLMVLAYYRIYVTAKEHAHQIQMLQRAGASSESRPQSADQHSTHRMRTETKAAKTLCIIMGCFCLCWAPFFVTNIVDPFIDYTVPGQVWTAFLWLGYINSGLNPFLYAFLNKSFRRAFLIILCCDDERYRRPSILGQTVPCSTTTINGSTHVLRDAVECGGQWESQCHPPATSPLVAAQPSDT

SMILES | Intrinsic activity [1] | further results
CCN(CC)CCNC(=O)c1cc(Cl)c(N)cc1OC | 0.5 | –
COc1cc(N)c(Cl)cc1C(=O)OCCN1CCCCC1 | 0.5 | –
CCN(CC)CCOC(=O)c1cc(Cl)c(N)cc1OC | – | pKb [2]: 7.3
COc1cc(N)c(Cl)cc1C(=O)CCC1CCN(CCNS(C)(=O)=O)CC1 | 0.5 | –
COc1cc(N)c(Cl)cc1C(=O)NCCN1CCCCC1 | 0.6 | –
COc1cc(N)c(Cl)cc1C(=O)CCC1CCN(CCCNS(C)(=O)=O)CC1 | – | Activity [3]: Antagonist
COc1cc(N)c(Cl)cc1C(=O)OCCCN1CCCCC1 | – | pKb [2]: 7.9
COc1cc(N)c(Cl)cc1C(=O)NC[C@@H]1CCN2CCC[C@@H]12 | 0.6 | –
